test system: HEK293T cells carrying the ATF4 luciferase reporter; experiment: ATF4-Luc assay, in vitro model of Vanishing Cell White Matter Disease (VWMD); format: cell-based; conditions: Homo sapiens, HEK-293T, 1 μg/mL tunicamycin, 7 hours, One Glo luminescence
How it was run: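 Compound at 200 nM and tunicamycin at 1 μg/mL were given together for 7 h to HEK293T cells stably transduced with an ATF4 5′-UTR-driven firefly luciferase reporter. Read-out by luminescence, reported as EC50.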

Row | Compound | EC50 [nM]
1 | O=C(COc1ccc(Cl)c(Cl)c1)NC12CCC(NC(=O)c3cnc(C(F)F)cn3)(CC1)C[C@@H]2O [Compound 703, N-{(3S)-4-[2-(3,4-dichlorophenoxy)acetamido]-3-hydroxybicyclo[2.2.2]octan-1-yl}-5-(difluoromethyl)pyrazine-2-carboxamide] | < 50
2 | CC(C)c1cc(C(=O)NC23CC(NC(=O)COc4ccc(Cl)c(F)c4)(C2)C3)no1 [Compound 255, N-{3-[2-(4-chloro-3-fluorophenoxy)acetamido]bicyclo[1.1.1]pentan-1-yl}-5-(propan-2-yl)-1,2-oxazole-3-carboxamide] | 250 to 1000
3 | O=C(COc1ccc(Cl)c(F)c1)NC12CCC(NC(=O)c3onc4ccccc34)(CC1)C(O)C2 (stereo not shown) [Compound 332, N-{4-[2-(4-chloro-3-fluorophenoxy)acetamido]-2-hydroxybicyclo[2.2.2]octan-1-yl}-2,1-benzoxazole-3-carboxamide] | > 2000
4 | Cc1cccc(C(=O)NC23CC(NC(=O)COc4ccc(Cl)c(F)c4)(C2)C3)c1 [Compound 535, N-{3-[2-(4-chloro-3-fluorophenoxy)acetamido]bicyclo[1.1.1]pentan-1-yl}-3-methylbenzamide] | 50 to 250
5 | Cc1ccc(C(=O)NC23CC(NC(=O)COc4ccc(Cl)c(F)c4)(C2)C3)nc1 [Compound 146, N-{3-[2-(4-chloro-3-fluorophenoxy)acetamido]bicyclo[1.1.1]pentan-1-yl}-5-methylpyridine-2-carboxamide] | 50 to 250
6 | O=C(COc1ccc(Cl)c(F)c1)NC12CC(NC(=O)c3cnc4[nH]ccc4c3)(C1)C2 [Compound 746, N-{3-[2-(4-chloro-3-fluorophenoxy)acetamido]bicyclo[1.1.1]pentan-1-yl}-1H-pyrrolo[2,3-b]pyridine-5-carboxamide] | 50 to 250
7 | CC(C)(C)c1cnc(C(=O)NC23CCC(NC(=O)COc4ccc(Cl)c(F)c4)(CC2)[C@@H](O)C3)cn1 [Compound 705, 5-tert-butyl-N-{(3S)-4-[2-(4-chloro-3-fluorophenoxy)acetamido]-3-hydroxybicyclo[2.2.2]octan-1-yl}pyrazine-2-carboxamide] | > 2000
8 | O=C(COc1ccc(Cl)c(F)c1)NC12CC(NC(=O)c3onc4c3CCCC4)(C1)C2 [Compound 854, N-{3-[2-(4-chloro-3-fluorophenoxy)acetamido]bicyclo[1.1.1]pentan-1-yl}-4,5,6,7-tetrahydro-2,1-benzoxazole-3-carboxamide] | > 2000
9 | O=C(COc1ccc(Cl)c(F)c1)NC12CC(NC(=O)c3ncccc3Cl)(C1)C2 [Compound 899, 3-chloro-N-{3-[2-(4-chloro-3-fluorophenoxy)acetamido]bicyclo[1.1.1]pentan-1-yl}pyridine-2-carboxamide] | 250 to 1000
10 | O=C(COc1ccc(Cl)c(F)c1)NC12CC(NC(=O)c3ccc(F)cn3)(C1)C2 [Compound 262, N-{3-[2-(4-chloro-3-fluorophenoxy)acetamido]bicyclo[1.1.1]pentan-1-yl}-5-fluoropyridine-2-carboxamide] | 50 to 250
11 | CSc1nccc(C(=O)NC23CC(NC(=O)COc4ccc(Cl)c(F)c4)(C2)C3)n1 [Compound 838, N-{3-[2-(4-chloro-3-fluorophenoxy)acetamido]bicyclo[1.1.1]pentan-1-yl}-2-(methylsulfanyl)pyrimidine-4-carboxamide] | 50 to 250
12 | Cc1cc(C(=O)NC23CCC(NC(=O)COc4ccc(Cl)c(F)c4)(CC2)C(O)C3)oc1C (stereo not shown) [Compound 474, N-{4-[2-(4-chloro-3-fluorophenoxy)acetamido]-3-hydroxybicyclo[2.2.2]octan-1-yl}-4,5-dimethylfuran-2-carboxamide] | 50 to 250
13 | Cc1cc(C(=O)NC23CCC(NC(=O)COc4ccc(Cl)c(F)c4)(CC2)[C@@H](O)C3)on1 (single isomer, unassigned) [Compound 358] | < 50
14 | CN(C)CCOc1ccccc1C(=O)NC12CC(NC(=O)COc3ccc(Cl)c(F)c3)(C1)C2 [Compound 549, N-{3-[2-(4-chloro-3-fluorophenoxy)acetamido]bicyclo[1.1.1]pentan-1-yl}-2-[2-(dimethylamino)ethoxy]benzamide] | > 2000
15 | Cc1noc2ncc(C(=O)NC34CC(NC(=O)COc5ccc(Cl)c(F)c5)(C3)C4)cc12 [Compound 791, N-{3-[2-(4-chloro-3-fluorophenoxy)acetamido]bicyclo[1.1.1]pentan-1-yl}-3-methyl[1,2]oxazolo[5,4-b]pyridine-5-carboxamide] | > 2000
16 | O=C(COc1ccc(Cl)c(F)c1)NC12CCC(NC(=O)c3cnc(-c4ccccc4)o3)(CC1)C[C@@H]2O [Compound 931, N-{(3S)-4-[2-(4-chloro-3-fluorophenoxy)acetamido]-3-hydroxybicyclo[2.2.2]octan-1-yl}-2-phenyl-1,3-oxazole-5-carboxamide] | < 50
17 | O=C(COc1ccc(Cl)c(F)c1)NC12CC(Nc3nccn4nccc34)(C1)C2 [Compound 722, 2-(4-chloro-3-fluorophenoxy)-N-{3-[(pyrazolo[1,5-a]pyrazin-4-yl)amino]bicyclo[1.1.1]pentan-1-yl}acetamide] | 50 to 250
18 | Cc1ncc(C(=O)NC23CC(NC(=O)COc4ccc(Cl)c(F)c4)(C2)C3)c(C)n1 [Compound 784, N-{3-[2-(4-chloro-3-fluorophenoxy)acetamido]bicyclo[1.1.1]pentan-1-yl}-2,4-dimethylpyrimidine-5-carboxamide] | > 2000
19 | Cc1cnc(C(=O)NC23CCC(NC(=O)COc4ccc(Cl)c(F)c4)(CC2)C[C@@H]3O)cn1 [Compound 733, N-{(2S)-4-[2-(4-chloro-3-fluorophenoxy)acetamido]-2-hydroxybicyclo[2.2.2]octan-1-yl}-5-methylpyrazine-2-carboxamide] | > 2000
20 | O=C(COc1ccc(Cl)c(F)c1)NC12CC(NC(=O)c3ccno3)(C1)C2 [Compound 311, N-{3-[2-(4-chloro-3-fluorophenoxy)acetamido]bicyclo[1.1.1]pentan-1-yl}-1,2-oxazole-5-carboxamide] | 1000 to 2000
21 | O=C(COc1ccc(Cl)c(F)c1)NC12CCC(NC(=O)c3cnc(C(F)F)cn3)(CC1)[C@@H](O)C2 (single isomer, unassigned) [Compound 236] | < 50
22 | O=C(COc1ccc(Cl)c(F)c1)NC12CCC(NC(=O)c3cc(C(F)F)no3)(CC1)CC2O (stereo not shown) [Compound 632, N-{4-[2-(4-chloro-3-fluorophenoxy)acetamido]-3-hydroxybicyclo[2.2.2]octan-1-yl}-3-(difluoromethyl)-1,2-oxazole-5-carboxamide] | < 50
23 | O=C(COc1ccc(Cl)c(F)c1)NC12CCC(NC(=O)c3ccc(C4CC4)cn3)(CC1)CC2O (stereo not shown) [Compound 938, N-{4-[2-(4-chloro-3-fluorophenoxy)acetamido]-3-hydroxybicyclo[2.2.2]octan-1-yl}-5-cyclopropylpyridine-2-carboxamide] | 50 to 250
24 | O=C(COc1ccc(Cl)c(F)c1)NC12CC(NC(=O)c3ccc4ncccc4n3)(C1)C2 [Compound 658, N-{3-[2-(4-chloro-3-fluorophenoxy)acetamido]bicyclo[1.1.1]pentan-1-yl}-1,5-naphthyridine-2-carboxamide] | 50 to 250
25 | Cc1ccc(F)c(C(=O)NC23CC(NC(=O)COc4ccc(Cl)c(F)c4)(C2)C3)n1 [Compound 832, N-{3-[2-(4-chloro-3-fluorophenoxy)acetamido]bicyclo[1.1.1]pentan-1-yl}-3-fluoro-6-methylpyridine-2-carboxamide] | 50 to 250
